Laboratory results reported in patent US10441663B2, “Methods for treating cancer” (Bicycle Therapeutics Limited, priority 2016, dated 2019).
*1 amine or outer side, *2 acyl side, *3 side chain or, on linkers, in order; H or OH if unused. Where a SMILES comes first, the peptide text is derived from it. Bridges are numbered along the chain shown (N, C = ends). [ ]: non-standard residue; d: D form. The star is where a group is joined. X1 = COc1cc2cc(c1Cl)N(C)C(=O)C[C@H](OC(=O)[C@H](C)N(C)C(=O)CCSSC(C)CCC(=O)*)[C@]1(C)O[C@H]1[C@H](C)[C@@H]1C[C@@](O)(NC(=O)O1)[C@H](OC)/C=C/C=C(\C)C2; 1Nal = N[C@@H](Cc1cccc2ccccc12)C(=O)O; TBMB = c1c(C[*:1])cc(C[*:3])cc1C[*:2]; Tle = CC(C)(C)[C@H](N)C(=O)O; βAla = NCCC(=O)O; Sar = CNCC(=O)O

Tests used:
[1] = tested on: MT1-positive tumor xenograft models (e.g. HT1080 fibrosarcoma; HCC1806 triple negative breast cancer; SNU-16 gastric cancer); assay: Selection of MT1-positive tumor xenograft models; type: in vivo
From the text: Efficacy in this model was reduced in the conjugates containing the least cleavable linkers.

RPMI2650 xenograft = assay: In vivo efficacy of BT1718 in RPMI2650 xenograft; design: species or system Mus Musculus; key to Best response at 10 mg/kg: CR complete response; PR partial response
Procedure: The objective of this study was to evaluate the in vivo anti-tumor efficacy of BT1718in treatment of HT1080, NCI-H292, NCI-H1975, MDA-MB-231, HCC1806, RPMI2650, HCT-15, HT-29 and SNU-16 xenograft in BALB/c nude mice.
The HT1080, NCI-H292, NCI-H1975, MDA-MB-231, HCC1806, RPMI2650, HCT-15, HT-29 and SNU-16 tumor cells were maintained in vitro as a monolayer culture in medium supplemented with 10% heat inactivated fetal bovine serum at 37° C. in an […]. The tumor cells will be routinely subcultured twice weekly by trypsin-EDTA treatment. The cells growing in an exponential growth phase will be harvested and counted for tumor inoculation.
Mouse was inoculated subcutaneously at the right flank with tumor cells for tumor development. The animals were randomized and treatment was started when the average tumor reaches certain volume for the efficacy study, the inoculating cell amounts and starting tumor size were shown as below in Table 9. The test article administration and the animal numbers in each group were shown in the experimental design in Table 10.
All the procedures related to animal handling, care and the treatment in the study were performed according to the guidelines of the Association for Assessment and Accreditation of Laboratory Animal Care (AAALAC). At the time of routine monitoring, the animals were daily checked for any effects of tumor growth and treatments on normal behavior such as mobility, food and water consumption (by looking only), body weight gain/loss (body weights were measured every day), eye/hair matting and any other abnormal effect as stated in the protocol. Death and observed clinical signs were recorded on the basis of the numbers of animals within each subset.
The major endpoint was to see if the tumor growth could be delayed or mice could be cured. Tumor size was measured three times weekly in two dimensions using a caliper, and the volume was expressed in mm^3 using the formula: V=0.5 a×b^2 where a and b are the long and short diameters of the tumor, respectively. The tumor size was then used for calculations of T/C value. The T/C value (in percent) is an indication of antitumor effectiveness; T and C are the mean volumes of the treated and control groups, respectively, on a given day.
TGI was calculated for each group using the formula: TGI (%)=[1−(Ti−T0)/(Vi−V0)]×100; Ti is the average tumor volume of a treatment group on a given day, T0 is the average tumor volume of the treatment group on the day of treatment start, Vi is the average tumor volume of the vehicle control group on the same day with Ti, and V0 is the average tumor volume of the vehicle group on the day of treatment start.
Summary statistics, including mean and the standard error of the mean (SEM), are provided for the tumor volume of each group at each time point.
Statistical analysis of difference in tumor volume among the groups was conducted on the data obtained at the best therapeutic time point after the final dose.
A one-way ANOVA was performed to compare tumor volume among groups, and when a significant F-statistics (a ratio of treatment variance to the error variance) was obtained, comparisons between groups were carried out with Games-Howell test. All data were analyzed using Prism. P<0.05 was considered to be statistically significant.

With `COc1cc2cc(c1Cl)N(C)C(=O)C[C@H](OC(=O)[C@H](C)N(C)C(=O)CCSSC(C)CCC(=O)NCCC(=O)N(C)CC(=O)N(C)CC(=O)N(C)CC(=O)N(C)CC(=O)N(C)CC(=O)N(C)CC(=O)N(C)CC(=O)N(C)CC(=O)N(C)CC(=O)N(C)CC(=O)N[C@@H](C)C(=O)N[C@H]1CSCc3cc4cc(c3)CSC[C@H](NC(=O)[C@@H](C)NC(=O)[C@H](Cc3cccc5ccccc35)NC(=O)[C@H](CCC(=O)O)NC(=O)[C@H](CC(N)=O)NC(=O)[C@@H](C)NC1=O)C(=O)N[C@@H](CCC(=O)O)C(=O)N[C@@H](CC(=O)O)C(=O)N[C@@H](Cc1ccccc1)C(=O)N[C@@H](Cc1ccc(O)cc1)C(=O)N[C@@H](CC(=O)O)C(=O)N[C@@H](C(C)(C)C)C(=O)N[C@H](C(N)=O)CSC4)[C@]1(C)O[C@H]1[C@H](C)[C@@H]1C[C@@](O)(NC(=O)O1)[C@H](OC)/C=C/C=C(\C)C2` (some centres unmarked) [BT1718] ({X1-βAla}-[Sar][Sar][Sar][Sar][Sar][Sar][Sar][Sar][Sar][Sar]AC[dA]NE[1Nal][dA]CEDFYD[Tle]C-NH2; linker 12-18-25 via TBMB (inferred)) the tumor response ([1]; 10 mg/kg twice weekly) was “complete regressions in most models”, the minimally effective doses ([1]; weekly or twice weekly) was 3 to 10 mg/kg and the tumor response (RPMI2650 xenograft; 10 mg/kg biw) was “significant tumor inhibition effect, but didn't cause tumor regression”. The “Body Weight” value (RPMI2650 xenograft; 1 mpk biw, day 0) was 21.8 ± 0.5 g, the “Tumor Volume” value (RPMI2650 xenograft; 1 mpk biw, day 0) was 146 ± 5 mm^3 and the “Body Weight” value (RPMI2650 xenograft; 1 mpk biw, day 2) was 22.1 ± 0.6 g. For the same molecule, the “Tumor Volume” value (RPMI2650 xenograft; 1 mpk biw, day 2) was 159 ± 9 mm^3, the “Body Weight” value (RPMI2650 xenograft; 1 mpk biw, day 4) was 22.1 ± 0.7 g and the “Tumor Volume” value (RPMI2650 xenograft; 1 mpk biw, day 4) was 213 ± 23 mm^3. The “Body Weight” value (RPMI2650 xenograft; 1 mpk biw, day 7) was 22.6 ± 0.5 g, the “Tumor Volume” value (RPMI2650 xenograft; 1 mpk biw, day 7) was 362 ± 34 mm^3 and the “Body Weight” value (RPMI2650 xenograft; 1 mpk biw, day 9) was 22.8 ± 0.5 g. For the same molecule, the “Tumor Volume” value (RPMI2650 xenograft; 1 mpk biw, day 9) was 470 ± 68 mm^3, the “Body Weight” value (RPMI2650 xenograft; 1 mpk biw, day 11) was 22.6 ± 0.6 g and the “Tumor Volume” value (RPMI2650 xenograft; 1 mpk biw, day 11) was 614 ± 96 mm^3. For the same molecule, the “Body Weight” value (RPMI2650 xenograft; 1 mpk biw, day 14) was 23.1 ± 0.8 g, the “Tumor Volume” value (RPMI2650 xenograft; 1 mpk biw, day 14) was 833 ± 126 mm^3 and the “Body Weight” value (RPMI2650 xenograft; 3 mpk biw, day 0) was 22.1 ± 0.7 g. For the same molecule, the “Tumor Volume” value (RPMI2650 xenograft; 3 mpk biw, day 0) was 147 ± 11 mm^3, the “Body Weight” value (RPMI2650 xenograft; 3 mpk biw, day 2) was 21.9 ± 0.8 g and the “Tumor Volume” value (RPMI2650 xenograft; 3 mpk biw, day 2) was 164 ± 20 mm^3. The “Body Weight” value (RPMI2650 xenograft; 3 mpk biw, day 4) was 21.4 ± 0.6 g, the “Tumor Volume” value (RPMI2650 xenograft; 3 mpk biw, day 4) was 220 ± 23 mm^3 and the “Body Weight” value (RPMI2650 xenograft; 3 mpk biw, day 7) was 21.9 ± 0.8 g. For the same molecule, the “Tumor Volume” value (RPMI2650 xenograft; 3 mpk biw, day 7) was 365 ± 10 mm^3, the “Body Weight” value (RPMI2650 xenograft; 3 mpk biw, day 9) was 21.4 ± 0.7 g and the “Tumor Volume” value (RPMI2650 xenograft; 3 mpk biw, day 9) was 447 ± 18 mm^3. For the same molecule, the “Body Weight” value (RPMI2650 xenograft; 3 mpk biw, day 11) was 20.7 ± 0.8 g, the “Tumor Volume” value (RPMI2650 xenograft; 3 mpk biw, day 11) was 576 ± 19 mm^3 and the “Body Weight” value (RPMI2650 xenograft; 3 mpk biw, day 14) was 21.0 ± 0.7 g. The “Tumor Volume” value (RPMI2650 xenograft; 3 mpk biw, day 14) was 724 ± 28 mm^3, the “Body Weight” value (RPMI2650 xenograft; 10 mpk biw, day 0) was 22.0 ± 0.3 g and the “Tumor Volume” value (RPMI2650 xenograft; 10 mpk biw, day 0) was 147 ± 7 mm^3. The “Body Weight” value (RPMI2650 xenograft; 10 mpk biw, day 2) was 21.2 ± 0.1 g, the “Tumor Volume” value (RPMI2650 xenograft; 10 mpk biw, day 2) was 151 ± 10 mm^3 and the “Body Weight” value (RPMI2650 xenograft; 10 mpk biw, day 4) was 20.6 ± 0.5 g. For the same molecule, the “Tumor Volume” value (RPMI2650 xenograft; 10 mpk biw, day 4) was 190 ± 25 mm^3, the “Body Weight” value (RPMI2650 xenograft; 10 mpk biw, day 7) was 21.1 ± 0.4 g and the “Tumor Volume” value (RPMI2650 xenograft; 10 mpk biw, day 7) was 198 ± 38 mm^3. The “Body Weight” value (RPMI2650 xenograft; 10 mpk biw, day 9) was 19.9 ± 0.3 g, the “Tumor Volume” value (RPMI2650 xenograft; 10 mpk biw, day 9) was 165 ± 42 mm^3 and the “Body Weight” value (RPMI2650 xenograft; 10 mpk biw, day 11) was 19.2 ± 0.3 g. The “Tumor Volume” value (RPMI2650 xenograft; 10 mpk biw, day 11) was 155 ± 54 mm^3, the “Body Weight” value (RPMI2650 xenograft; 10 mpk biw, day 14) was 19.6 ± 0.7 g and the “Tumor Volume” value (RPMI2650 xenograft; 10 mpk biw, day 14) was 131 ± 49 mm^3. The “Best response at 10 mg/kg” value (RPMI2650 xenograft; RPMI2650, 10 mg/kg) was “PR”, the TGI (RPMI2650 xenograft; RPMI2650, 1 mpk, biw, day 14) was 4.5% and the “Tumor Volume” value (RPMI2650 xenograft; RPMI2650, 1 mpk, biw, day 14) was 833 ± 126 mm^3. The TGI (RPMI2650 xenograft; RPMI2650, 3 mpk, biw, day 14) was 19.8%, the “Tumor Volume” value (RPMI2650 xenograft; RPMI2650, 3 mpk, biw, day 14) was 724 ± 28 mm^3 and the TGI (RPMI2650 xenograft; RPMI2650, 10 mpk, biw, day 14) was 102.1%. The “Tumor Volume” value (RPMI2650 xenograft; RPMI2650, 10 mpk, biw, day 14) was 131 ± 49 mm^3 and the “Minimally Effective Dose IV BIW” value (RPMI2650 xenograft; RPMI2650, dose leading to tumor-stasis) was 10 mg/kg.
